In patent US8796228B2, “Method for neutralizing fungi using sophorolipids and antifungal sophorolipids for use therein” (Synthezyme, LLC, priority 2004, dated 2014):

Assays:
Test in all cases: Antifungal assay, growth inhibition by OD in 96 well plates
Format in all cases: cell-based
Settings in all cases: 5 mg/ml sophorolipid solution, 48 hours at 30° C., OD at 400 nm vs control wells
[1] = system: Candida albicans
Experimental: (§1) Sophorolipid solution was prepared by adding 15 mg of compound in 1 ml sucrose solution, pH 8.5.
(§2) All assay were carried out in 96 well plates using Yeast extract-Maltose medium. The logarithmic growing cultures were incubated with 5 mg/ml of sophorolipids for 48 hours at 30° C. Following incubation, the wells were measured for Optical Density (OD) at 400 nm using microtitre plate readers. Percent (%) inhibition of growth was calculated corresponding to the OD in control wells containing no sophorolipid.

[2] = system: Candida tropicalis
Experimental: as §1, §2

[3] = system: Candida antartica
Experimental: as §1, §2

Row | SMILES | Inhibition % [1] [%] | Inhibition % [2] [%] | Inhibition % [3] [%]
1 | CCCCCCOC(=O)CCCCCCC/C=C\CCCCCCC(C)O[C@@H]1O[C@H](CO)[C@@H](O)[C@H](O)[C@H]1O[C@@H]1O[C@H](CO)[C@@H](O)[C@H](O)[C@H]1O (relative stereo) [Hexyl SL, Hexyl 17-L-[(2′-O-β-D-glucopyranosyl-β-D-glucopyranosyl)-oxy]-cis-9-octadecenoate] | 38 | 100 | 100
2 | CCOC(=O)CCCCCCC/C=C\CCCCCCC(C)O[C@@H]1O[C@H](CO)[C@@H](O)[C@H](O)[C@H]1O[C@@H]1O[C@H](CO)[C@@H](O)[C@H](O)[C@H]1O (relative stereo) [SL - Ethyl Ester, Ethyl 17-L-([2′-O-β-D-glucopyranosyl-β-D-glucopyranosyl]-oxy)-cis-9-octadecenoate] | 20 | 35 | 28
3 | COC(=O)CCCCCCC/C=C\CCCCCC[C@H](C)O[C@@H]1O[C@H](CO)[C@@H](O)[C@H](O)[C@H]1O[C@@H]1O[C@H](CO)[C@@H](O)[C@H](O)[C@H]1O (relative stereo) [SL - Methyl Ester, Methyl 17-L-([2′-O-β-D-glucopyranosyl-β-D-glucopyranosyl]-oxy)-cis-9-octadecenoate] | 100 | 100 | 71
4 | CCOC(=O)CCCCCCC/C=C\CCCCCCC(C)O[C@@H]1O[C@H](COC(C)=O)[C@@H](O)[C@H](O)[C@H]1O[C@@H]1O[C@H](COC(C)=O)[C@@H](O)[C@H](O)[C@H]1O (relative stereo) [SL Ethyl Ester Diacetate, Ethyl 17-L-([2′-O-β-D-glucopyranosyl-β-D-glucopyranosyl]-oxy)-cis-9-octadecenoate 6′,6″-diacetate] | 100 | 100 | 100
5 | CCOC(=O)CCCCCCC/C=C\CCCCCC[C@H](C)O[C@@H]1O[C@H](CO)[C@@H](O)[C@H](O)[C@H]1O[C@@H]1O[C@H](COC(C)=O)[C@@H](O)[C@H](O)[C@H]1O (relative stereo) [SL Ethyl Ester Monoacetate, Ethyl 17-L-[(2′-O-β-D-glucopyranosyl-β-D-glucopyranosyl)-oxy]-cis-9-octadecenoate-6″-acetate] | 100 | 35 | 42
